# Measurements as given in patent US20240182893A1, “INHIBITION OF FGR REDUCES FIBROSIS” (UNIVERSITY OF PITTSBURGH-OF THE COMMONWEALTH SYSTEM OF …, priority 2021, published 2024).
# “Also recorded” adds a separate entry of the source.
# What was measured:
# [1] = test system: target C57BL/6 stromal cells; assay: Non-contact transwell coculture: irradiated senescent tdTOMp16+ stromal cells on top, target cells at bottom, RT-qPCR of profibrotic genes; format: cell-based, mouse
# Experimental: It was also confirmed that the RIS cells showing upregulation of Fgr RNA by heat map also had higher RNA levels. Validation of RNA for p16 and p21, as well as Fgr was carried out (FIG. 5A-FIG. 5C). To establish that irradiated tdTOMp16+ senescent cells induce profibrotic genes, a C57BL/6 target cell line, and a noncontact transwell co-culture system was used (FIG. 6A). Irradiated red cells were compared to 0 Gy or irradiated non-red cells. Sorted red cells, were placed on the top of each well and C57/B6 mouse stromal target cells were plated at the bottom well and observed for two weeks. There was significant induction of collagen 1al and collagen 3 in C57/B6 target cells by RIS red cells (FIG. 6B-FIG. 6C). […] (FIG. 6D).
# Transwell experiment: Control and Fgr knockdown stable cell lines were irradiated with 5 Gy by Cesium Gamma Cell dose rate 300 cGy/min. Ten days after radiation, red senescent and non-red non-senescent cells were sorted using MoFlo Astrios Cell Sorter (Beckman Coulter). Senescent and non-senescent cells were plated on the top well of the transwell with a […] pore size (Coster, Cat. No. 3412) and the target C57BL/6 cell line for the evaluation of fibrotic markers was plated at the bottom. 2 weeks later total RNA was extracted from the target C57BL/6 cells and evaluated by qPCR for Collagen 3 (Mm01254476_m1) and TGF-beta (Mm01191861_m1). GAPDH (Mm99999915_g1) was used as the loading control.
# Transwell coculture experiments. A Transwell system (0.4-μm pore size, polyester membrane; Corning, Kennebunk, ME) was used (Ejaz A et al. Stem Cells. 2019, 37, 791-802). C57BL/6 mouse bone marrow stromal cells or mouse primary tail fibroblasts were cultured in the bottom surface of a 9-cm^2 culture dishes. Above the adherent layer in the transwell, tdTOMp16+ bone marrow stromal cells (non-irradiated, irradiated non-sorted, irradiated, and sorted senescent tdTOM+, or irradiated non-senescent tdTOM− cells) were cultured in the upper transwell. […] For the stable Fgr shRNA cells, non-target control and Fgr shRNA knockdown cell lines were also irradiated and sorted following the same protocol. Briefly, tdTOMp16+ cells were irradiated and after 10 days of radiation, the cells were FACS sorted for tdTOM+ and tdTOM− cells and 3×10^5 cells added on the top wells in each case. Coculture was maintained for another 10 days. The target cells from the bottom well were lysed, and total RNA was isolated using TRizol (Sigma) reagent following the manufacturer's protocol. cDNA was synthesized, and expression of profibrotic genes (TGF-β1, CTGF, collagens (Col1, Col3), and α-SMA were analyzed using gene-specific TaqMan primers employing quantitative real-time polymerase chain reaction (PCR).
# In vitro transwell experiments. Senescent bone marrow derived irradiated (5 Gy, subconfluent cultures held for 10 days) tdTOMp16+ cells were sorted for TOM+ (red) color and placed in Transwell cultures. Two types of transwell experiments were carried out. For induction of fibrosis biomarkers in target cells, senescent cells were placed into the top chamber separated from target mesenchymal stem cells (MSCs) derived from the adherent layer of long term C57Bl/6 mouse bone marrow cultures in the bottom chamber by a 0.4-micron pore size membrane. […] The migration of gfp+ cells through the filter to the bottom compartment was measured by imaging the bottom wells and counting gfp+ cells relative to numbers of senescent TOM+ (red) cells. […]
# [2] = test system: mouse model of radiation-induced pulmonary fibrosis; assay: Mouse model of radiation-induced pulmonary fibrosis (18 Gy), qPCR and staining of lungs; format: in vivo
# Experimental: FIG. 47. […] Relative mRNA expression of profibrotic genes (Tgf-β, Ctgf, Collagen 1a1, Collagen 3 and Collagen 4), senescence biomarkers (p16 and p21) and tyrosine kinase Fgr was evaluated by qPCR from one lobe of mouse lungs in control, irradiated and treated with Fgr inhibitor TL02-59 post irradiation. Briefly, Mice were irradiated (18 Gy), and TL02-59 treated (10 mg/kg), 3/week at day 75 for 4 weeks. (n=4-13). Statistics was performed, and individual p values were calculated by unpaired t-test.
# FIG. 48. Expression of Fgr and p16 from mouse lungs in control, irradiated, and treated with Fgr inhibitor TL02-59 post irradiation. […] Insets on the right from each group were magnified for clarity.
# FIG. 47. […] Relative mRNA expression of profibrotic genes (Tgf-β, Ctgf, Collagen 1a1, Collagen 3 and Collagen 4), senescence biomarkers (p16 and p21) and tyrosine kinase Fgr was evaluated by qPCR from one lobe of mouse lungs in control, irradiated and treated with Fgr inhibitor TL02-59 post irradiation. Briefly, Mice were irradiated (18 Gy), and TL02-59 treated (10 mg/kg), 3/week at day 75 for 4 weeks. (n=4-13), Statistics was performed, and individual p values were calculated by unpaired t-test.
# [3] = 10 nM TL02-59, 10 days, FIG. 23
smiles,measurement,setting,value
CCN1CCN(Cc2ccc(NC(=O)c3ccc(C)c(Oc4ncnc5cc(OC)c(OC)cc45)c3)cc2C(F)(F)F)CC1 [TL02-59],induction of TGF-beta in target cells by tdTOM+ senescent cells (RT-qPCR),[1]; [3],significantly inhibited induction; also recorded: abrogates the induction of profibrotic genes
same,induction of collagen 3 in target cells by tdTOM+ senescent cells (RT-qPCR),[1]; [3],significantly inhibited induction; also recorded: abrogates the induction of profibrotic genes
same,induction of fibrosis biomarkers TGF-β and Collagen 3 in target mesenchymal stem cells,"[1]; TL02-59 10 nM, 10 days, FIG. 44",blocked; also recorded: inhibits the induction
same,induction of collagen 3 in target cells by RIS red cells,"[1]; TL02-59 1 μm, transwell, after 2 weeks, FIG. 6D",reduced the induction of collagen 3; also recorded: blocks senescent cell induction
same,"induction of biomarkers of fibrosis (collagen 1a1, collagen 3, TGF-β) in target cells by RIS cells","[1]; transwell co-culture, tdTOMp16+ stromal cell line",abrogates the induction of biomarkers of fibrosis; also recorded: abrogated senescent cell induction of profibrotic genes
same,"relative mRNA expression of profibrotic genes (Tgf-β, Ctgf, Collagen 1a1, Collagen 3, Collagen 4), senescence biomarkers (p16, p21) and Fgr in lungs (qPCR)","[2]; 18 Gy, TL02-59 10 mg/kg, 3/week at day 75 for 4 weeks, FIG. 47",reduces profibrotic and biomarkers of senescence
same,expression of Fgr and p16 proteins in mouse lungs (images),"[2]; irradiated, TL02-59 post irradiation, FIG. 48",led to a reduction of both the proteins
